Reference: US20100317528A1, “HERBICIDE CONTAINING BENZOYLPYRAZOLE COMPOUND” (ISHIHARA SANGYO KAISHA, LTD., priority 2006, published 2010)

Tests used:
Type in all cases: in vivo
wheat (Triticum spp.) [1] = assay: Test Example 1: foliar treatment, upland pot test, wheat
In short: (§1)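 Upland soil pots, sown; foliar spray at pigweed cotyledon–2.0 leaf, velvetleaf 0.1–1.5 leaf, rice 1.0–3.0 leaf, wheat 1.7–3.4 leaf. WP/EC formulations, prescribed a.i. rate, 500 L/ha spray volume + 0.1 vol % spreader. Visual % inhibition, d17–25.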

[2] = system: barnyardgrass (Echinochloa crus-galli L.); assay: Test Example 2: soil application on the day after sowing, barnyardgrass
In short: (§2)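 Day-after-sowing soil treatment in 1/170,000 ha pots of upland soil, sprayed at 500 L/ha water volume; % growth inhibition rated by eye 19–28 days later.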

[3] = system: prickly sida (Sida spinosa L.); assay: Test Example 1: foliar treatment, upland pot test, prickly sida
[4] = system: redroot pigweed (Amaranthus retroflexus L.); assay: Test Example 1: foliar treatment, upland pot test, redroot pigweed
In short: as §1

[5] = system: redroot pigweed (Amaranthus retroflexus L.); assay: Test Example 2: soil application on the day after sowing, redroot pigweed
In short: as §2

[6] = system: velvetleaf (Abutilon theophrasti MEDIC.); assay: Test Example 1: foliar treatment, upland pot test, velvetleaf
In short: as §1

[7] = system: velvetleaf (Abutilon theophrasti MEDIC.); assay: Test Example 2: soil application on the day after sowing, velvetleaf
In short: as §2

corn (Zea mays L.) [8] = assay: Test Example 1: foliar treatment, upland pot test, corn
[9] = system: green foxtail (Setaria viridis L.); assay: Test Example 2: soil application on the day after sowing, green foxtail
In short: as §2

[10] = system: barnyardgrass (Echinochloa crus-galli L.); assay: Test Example 1: foliar treatment, upland pot test, barnyardgrass
[11] = system: soybean (Glycine max Merr.); assay: Test Example 2: soil application on the day after sowing, soybean
In short: as §2

corn (Zea mays L.) [12] = assay: Test Example 2: soil application on the day after sowing, corn
In short: as §2

[13] = system: prickly sida (Sida spinosa L.); assay: Test Example 2: soil application on the day after sowing, prickly sida
In short: as §2

rice (Oryza sativa L.) [14] = assay: Test Example 2: soil application on the day after sowing, rice
In short: as §2

[15] = system: soybean (Glycine max Merr.); assay: Test Example 1: foliar treatment, upland pot test, soybean
rice (Oryza sativa L.) [16] = assay: Test Example 1: foliar treatment, upland pot test, rice
In short: as §1

[17] = system: crabgrass (Digitaria sanguinalis L.); assay: Test Example 1: foliar treatment, upland pot test, crabgrass
wheat (Triticum spp.) [18] = assay: Test Example 2: soil application on the day after sowing, wheat
Description: Upland field soil was put into a 1/170,000 hectare pot, and seeds of various plants barnyardgrass (Echinochloa crus-galli L.), crabgrass (Digitaria sanquinalis L.), green foxtail (Setaria viridis L.), redroot pigweed (Amaranthus retroflexus L.), prickly sida (Sida spinosa L.), velvetleaf (Abutilon theophrasti MEDIC.), rice (Oryza sativa L.), wheat (Triticum spp.), corn (Zea mays L.) and soybean (Glycine max Merr.)) were sown. On the day after sowing, wettable powders or emulsifiable concentrates of the compounds of the above formula (I) prepared in accordance with a conventional preparation method, were weighed so that the active ingredients became the prescribed amounts, and diluted with water in an amount corresponding to 500 liter per 1 hectare, followed by soil application with a small sprayer.
On the 19th to 28th day after the application, the state of growth of the respective plants was visually observed, and the herbicidal effect was evaluated by a growth inhibition rate (%) of from 0 (equivalent to the non-treated area) to 100% (complete kill).

[19] = system: green foxtail (Setaria viridis L.); assay: Test Example 1: foliar treatment, upland pot test, green foxtail
[20] = system: crabgrass (Digitaria sanquinalis L.); assay: Test Example 2: soil application on the day after sowing, crabgrass
In short: as §2

[21] = 31 g/ha active ingredient, observed 17th to 25th day after application
[22] = 250 g/ha active ingredient, observed 19th to 28th day after application

CCc1nn(C)c(O)c1C(=O)c1ccc(S(C)(=O)=O)c(OCCOC)c1C [compound 261]
Growth inhibition rate (%) Wheat (wheat (Triticum spp.) [1]; [21]): 5% | Growth inhibition rate (%) Barnyardgrass [2, 22]: 50% | Growth inhibition rate (%) Prickly sida [3, 21]: 50% | Growth inhibition rate (%) Redroot pigweed [4, 21]: 95% | Growth inhibition rate (%) Redroot pigweed [5, 22]: 100% | Growth inhibition rate (%) Velvetleaf [6, 21]: 95% | Growth inhibition rate (%) Velvetleaf [7, 22]: 30% | Growth inhibition rate (%) Corn (corn (Zea mays L.) [8]; [21]): 0% | Growth inhibition rate (%) Green foxtail [9, 22]: 60% | Growth inhibition rate (%) Barnyardgrass [10, 21]: 90% | Growth inhibition rate (%) Soybean [11, 22]: 0% | Growth inhibition rate (%) Corn (corn (Zea mays L.) [12]; [22]): 20% | Growth inhibition rate (%) Prickly sida [13, 22]: 20% | Growth inhibition rate (%) Rice (rice (Oryza sativa L.) [14]; [22]): 20% | Growth inhibition rate (%) Soybean [15, 21]: 50% | Growth inhibition rate (%) Rice (rice (Oryza sativa L.) [16]; [21]): 80% | Growth inhibition rate (%) Crabgrass [17, 21]: 90% | Growth inhibition rate (%) Wheat (wheat (Triticum spp.) [18]; [22]): 0% | Growth inhibition rate (%) Green foxtail [19, 21]: 80% | Growth inhibition rate (%) Crabgrass [20, 22]: 95%

Cn1ncc(C(=O)c2ccc(S(C)(=O)=O)c(S(C)(=O)=O)c2Cl)c1O [compound 247]
inhibition at 63 g/ha (wheat (Triticum spp.) [1]; Triticum, 63 g/ha active ingredient, observed 21st day after application, read-out: Growth inhibition rate (%) Wheat): 0% | inhibition at 500 g/ha ([2]; Echinochloa crus-galli, 500 g/ha active ingredient, observed 20th day after application, read-out: Growth inhibition rate (%) Barnyardgrass): 100% | inhibition at 63 g/ha ([3]; Sida spinosa, 63 g/ha active ingredient, observed 21st day after application, read-out: Growth inhibition rate (%) Prickly sida): 90% | inhibition at 63 g/ha ([4]; Amaranthus retroflexus, 63 g/ha active ingredient, observed 21st day after application, read-out: Growth inhibition rate (%) Redroot pigweed): 100% | inhibition at 500 g/ha ([5]; Amaranthus retroflexus, 500 g/ha active ingredient, observed 20th day after application, read-out: Growth inhibition rate (%) Redroot pigweed): 100% | inhibition at 63 g/ha ([6]; Abutilon theophrasti, 63 g/ha active ingredient, observed 21st day after application, read-out: Growth inhibition rate (%) Velvetleaf): 80% | inhibition at 500 g/ha ([7]; Abutilon theophrasti, 500 g/ha active ingredient, observed 20th day after application, read-out: Growth inhibition rate (%) Velvetleaf): 100% | inhibition at 63 g/ha (corn (Zea mays L.) [8]; Zea mays, 63 g/ha active ingredient, observed 21st day after application, read-out: Growth inhibition rate (%) Corn): 0% | inhibition at 500 g/ha ([9]; Setaria viridis, 500 g/ha active ingredient, observed 20th day after application, read-out: Growth inhibition rate (%) Green foxtail): 100% | inhibition at 63 g/ha ([10]; Echinochloa crus-galli, 63 g/ha active ingredient, observed 21st day after application, read-out: Growth inhibition rate (%) Barnyardgrass): 90% | inhibition at 500 g/ha ([11]; Glycine max, 500 g/ha active ingredient, observed 20th day after application, read-out: Growth inhibition rate (%) Soybean): 50% | inhibition at 500 g/ha (corn (Zea mays L.) [12]; Zea mays, 500 g/ha active ingredient, observed 20th day after application, read-out: Growth inhibition rate (%) Corn): 0% | inhibition at 500 g/ha ([13]; Sida spinosa, 500 g/ha active ingredient, observed 20th day after application, read-out: Growth inhibition rate (%) Prickly sida): 75% | inhibition at 500 g/ha (rice (Oryza sativa L.) [14]; Oryza sativa, 500 g/ha active ingredient, observed 20th day after application, read-out: Growth inhibition rate (%) Rice): 98% | inhibition at 63 g/ha ([15]; Glycine max, 63 g/ha active ingredient, observed 21st day after application, read-out: Growth inhibition rate (%) Soybean): 100% | inhibition at 63 g/ha (rice (Oryza sativa L.) [16]; Oryza sativa, 63 g/ha active ingredient, observed 21st day after application, read-out: Growth inhibition rate (%) Rice): 20% | inhibition at 63 g/ha ([17]; Digitaria sanguinalis, 63 g/ha active ingredient, observed 21st day after application, read-out: Growth inhibition rate (%) Crabgrass): 30% | inhibition at 500 g/ha (wheat (Triticum spp.) [18]; Triticum, 500 g/ha active ingredient, observed 20th day after application, read-out: Growth inhibition rate (%) Wheat): 10% | inhibition at 63 g/ha ([19]; Setaria viridis, 63 g/ha active ingredient, observed 21st day after application, read-out: Growth inhibition rate (%) Green foxtail): 50% | inhibition at 500 g/ha ([20]; Digitaria, 500 g/ha active ingredient, observed 20th day after application, read-out: Growth inhibition rate (%) Crabgrass): 100%
